# In US20240261367A1, “CYCLIC PEPTIDE IMMUNOMODULATORS” (priority 2021, published 2024):
# pIC50: −log10 of the molar value. Starred links: 1 amine or outer side, 2 acyl side, 3 side chain; linkers in the order of their positions; H or OH if unused. Positions of bridges follow the written chain, without caps; N, C: chain ends. Non-standard residues stand in square brackets, D forms with d. Residues, ends and D or L forms follow the SMILES beside them. *: point of attachment. X2 = COC(=O)CCCCCCCCCCCCCCCCC(=O)N[C@@H](CCC(=O)NCCOCCOCCOCCOCCOCCOCCOCCOCCOCCOCCOCCn1cc(C[C@H](NC(=N)CNC(=O)[C@H](CSCC(=O)[*:1])NC(=N)[C@H](CC(C)C)N[*:2])C(=O)OC)nn1)C(=O)OC; X1 = COC(=O)CCCCCCCCCCCCCCCCC(=O)N[C@@H](CCC(=O)NCCOCCOCCOCCOCCOCCOCCOCCOCCOCCOCCOCCn1cc(C[C@H](NC(=N)CN*)C(=O)O)nn1)C(=O)O; Trp(1-CH2CO2Me) = COC(=O)Cn1cc(C[C@H](N)C(=O)O)c2ccccc21; Trp(1-CH2COOH) = N[C@@H](Cc1cn(CC(=O)O)c2ccccc12)C(=O)O; Hyp = O=C(O)[C@@H]1C[C@@H](O)CN1; NMeNle = CCCC[C@H](NC)C(=O)O; NMeA = CN[C@@H](C)C(=O)O; Dab = NCC[C@H](N)C(=O)O; Dap = NC[C@H](N)C(=O)O
# Target: T1, PD-1/PD-L1 (Homo sapiens, UniProt Q9NZQ7)
# T1 construct: TVMV protease site linker (C); made in house; host or cells: HEK293T cells
# T1 sequence (Q9NZQ7 18-239): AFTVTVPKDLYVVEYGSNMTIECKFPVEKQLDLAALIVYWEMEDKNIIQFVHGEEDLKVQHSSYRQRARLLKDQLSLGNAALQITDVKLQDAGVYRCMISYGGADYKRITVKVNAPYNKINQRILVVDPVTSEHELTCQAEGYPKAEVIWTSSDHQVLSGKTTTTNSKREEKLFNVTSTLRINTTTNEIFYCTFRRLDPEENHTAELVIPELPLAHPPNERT
# Test: PD-1/PD-L1 Homogenous Time-Resolved Fluorescence (HTRF) binding assay
# Details: PD-L1-His (10 nM) pre-incubated with inhibitor 15 m, then PD-1-Ig (20 nM)
row,SMILES,pIC50
1,CCCC[C@H]1C(=O)N(C)[C@@H](CCCC)C(=O)N[C@@H](CC(C)C)C(=O)N[C@H](C(=O)NCC(=O)N[C@@H](Cc2cn(CCOCCOCCOCCOCCOCCOCCOCCOCCOCCOCCOCCNC(=O)CC[C@H](NC(=O)CCCCCCCCCCCCCCCCC(=O)OC)C(=O)O)nn2)C(=O)O)CSCC(=O)N[C@@H](Cc2ccc(O)cc2)C(=O)N(C)[C@@H](C)C(=O)N[C@@H](CC(N)=O)C(=O)N2CCC[C@H]2C(=O)N[C@@H](CNC(=O)OCc2oc(=O)oc2C)C(=O)N[C@@H](CC(C)C)C(=O)N2C[C@H](O)C[C@H]2C(=O)N[C@@H](Cc2c[nH]c3ccccc23)C(=O)N[C@@H](CCN)C(=O)N[C@@H](Cc2cn(CC(=O)O)c3ccccc23)C(=O)N1C [Example 7003],8.13
2,CCCC[C@H]1C(=O)N(C)[C@@H](CCCC)C(=O)N[C@@H](CC(C)C)C(=O)N[C@H](C(=O)NCC(=O)N[C@@H](Cc2cn(CCOCCOCCOCCOCCOCCOCCOCCOCCOCCOCCOCCNC(=O)CC[C@H](NC(=O)CCCCCCCCCCCCCCCCC(=O)O)C(=O)O)nn2)C(=O)OC)CSCC(=O)N[C@@H](Cc2ccc(O)cc2)C(=O)N(C)[C@@H](C)C(=O)N[C@@H](CC(N)=O)C(=O)N2CCC[C@H]2C(=O)N[C@@H](CN)C(=O)N[C@@H](CC(C)C)C(=O)N2C[C@H](O)C[C@H]2C(=O)N[C@@H](Cc2c[nH]c3ccccc23)C(=O)N[C@@H](CCN)C(=O)N[C@@H](Cc2cn(CC(=O)OC)c3ccccc23)C(=O)N1C [Example 3002],7.92
3,CCCC[C@H]1C(=O)N(C)[C@@H](CCCC)C(=O)N[C@@H](CC(C)C)C(=N)N[C@H](C(=O)NCC(=N)N[C@@H](Cc2cn(CCOCCOCCOCCOCCOCCOCCOCCOCCOCCOCCOCCNC(=O)CC[C@H](NC(=O)CCCCCCCCCCCCCCCCC(=O)OC)C(=O)OC)nn2)C(=O)OC)CSCC(=O)NCC(=O)N(C)[C@@H](C)C(=O)N[C@@H](CC(N)=O)C(=O)N2CCC[C@H]2C(=O)N[C@@H](CN)C(=O)N[C@@H](CC(C)C)C(=O)N2C[C@H](O)C[C@H]2C(=O)N[C@@H](Cc2c[nH]c3ccccc23)C(=O)N[C@@H](CCN)C(=O)N[C@@H](Cc2cn(CC(=O)OC)c3ccccc23)C(=O)N1C [Example 1001] (G[NMeA]NP[Dap]L[Hyp]W[Dab][Trp(1-CH2CO2Me)][NMeNle][NMeNle]; linker N-C via X2),8.14
4,CCCC[C@H]1C(=O)N(C)[C@@H](CCCC)C(=O)N[C@@H](CC(C)C)C(=O)N[C@H](C(=O)NCC(=O)N[C@@H](Cc2cn(CCOCCOCCOCCOCCOCCOCCOCCOCCOCCOCCOCCNC(=O)CC[C@H](NC(=O)CCCCCCCCCCCCCCCCC(=O)OCC)C(=O)OC)nn2)C(=O)O)CSCC(=O)N[C@@H](Cc2ccc(O)cc2)C(=O)N(C)[C@@H](C)C(=O)N[C@@H](CC(N)=O)C(=O)N2CCC[C@H]2C(=O)N[C@@H](CN)C(=O)N[C@@H](CC(C)C)C(=O)N2C[C@H](O)C[C@H]2C(=O)N[C@@H](Cc2c[nH]c3ccccc23)C(=O)N[C@@H](CCN)C(=O)N[C@@H](Cc2cn(CC(=O)O)c3ccccc23)C(=O)N1C [Example 1005],7.92
5,CCCC[C@H]1C(=O)N(C)[C@@H](CCCC)C(=O)N[C@@H](CC(C)C)C(=O)N[C@H](C(=O)NCC(=O)N[C@@H](Cc2cn(CCOCCOCCOCCOCCOCCOCCOCCOCCOCCOCCOCCNC(=O)CC[C@H](NC(=O)CCCCCCCCCCCCCCCCC(=O)O)C(=O)O)nn2)C(=O)O)CSCC(=O)N[C@@H](Cc2ccc(O)cc2)C(=O)N(C)[C@@H](C)C(=O)N[C@@H](CC(N)=O)C(=O)N2CCC[C@H]2C(=O)N[C@@H](CNC(=O)OC)C(=O)N[C@@H](CC(C)C)C(=O)N2C[C@H](O)C[C@H]2C(=O)N[C@@H](Cc2c[nH]c3ccccc23)C(=O)N[C@@H](CCN)C(=O)N[C@@H](CC2=CC(CC(=O)O)c3ccccc32)C(=O)N1C (some centres unmarked) [Example 1016],7.89
6,CCCC[C@H]1C(=O)N(C)[C@@H](CCCC)C(=O)N[C@@H](CC(C)C)C(=O)N[C@H](C(=O)NCC(=O)N[C@@H](Cc2cn(CCOCCOCCOCCOCCOCCOCCOCCOCCOCCOCCOCCNC(=O)CC[C@H](NC(=O)CCCCCCCCCCCCCCCCC(=O)O)C(=O)O)nn2)C(=O)O)CSCC(=O)N[C@@H](Cc2ccc(O)cc2)C(=O)N(C)[C@@H](C)C(=O)N[C@@H](CC(N)=O)C(=O)N2CCC[C@H]2C(=O)N[C@@H](CNC(=O)OCC)C(=O)N[C@@H](CC(C)C)C(=O)N2C[C@H](O)C[C@H]2C(=O)N[C@@H](Cc2c[nH]c3ccccc23)C(=O)N[C@@H](CCNC(=O)OCC)C(=O)N[C@@H](CC2=CC(CC(=O)O)c3ccccc32)C(=O)N1C (some centres unmarked) [Example 1008],8.23
7,CCCC[C@H]1C(=O)N(C)[C@@H](CCCC)C(=O)N[C@@H](CC(C)C)C(=O)N[C@H](C(=O)NCC(=O)N[C@@H](Cc2cn(CCOCCOCCOCCOCCOCCOCCOCCOCCOCCOCCOCCNC(=O)CC[C@H](NC(=O)CCCCCCCCCCCCCCCCC(=O)O)C(=O)O)nn2)C(=O)O)CSCC(=O)N[C@@H](Cc2ccc(O)cc2)C(=O)N(C)[C@@H](C)C(=O)N[C@@H](CC(N)=O)C(=O)N2CCC[C@H]2C(=O)N[C@@H](CNC(=O)OCc2oc(=O)oc2C)C(=O)N[C@@H](CC(C)C)C(=O)N2C[C@H](O)C[C@H]2C(=O)N[C@@H](Cc2c[nH]c3ccccc23)C(=O)N[C@@H](CCNC(=O)CCc2oc(=O)oc2C)C(=O)N[C@@H](CC2=CC(CC(=O)O)c3ccccc32)C(=O)N1C (some centres unmarked) [Example 1022],8.17
8,CCCC[C@H]1C(=O)N(C)[C@@H](CCCC)C(=O)N[C@@H](CC(C)C)C(=O)N[C@H](C(=O)NCC(=O)N[C@@H](Cc2cn(CCOCCOCCOCCOCCOCCOCCOCCOCCOCCOCCOCCNC(=O)CC[C@H](NC(=O)CCCCCCCCCCCCCCCCC(=O)OC)C(=O)OC)nn2)C(=O)O)CSCC(=O)N[C@@H](Cc2ccc(O)cc2)C(=O)N(C)[C@@H](C)C(=O)N[C@@H](CC(N)=O)C(=O)N2CCC[C@H]2C(=O)N[C@@H](CN)C(=O)N[C@@H](CC(C)C)C(=O)N2C[C@H](O)C[C@H]2C(=O)N[C@@H](Cc2c[nH]c3ccccc23)C(=O)N[C@@H](CCN)C(=O)N[C@@H](CC2=CC(CC(=O)O)c3ccccc32)C(=O)N1C (some centres unmarked) [Example 1011],7.96
9,CCCC[C@H]1C(=O)N(C)[C@@H](CCCC)C(=O)N[C@@H](CC(C)C)C(=O)N[C@H](C(=O)NCC(=O)N[C@@H](Cc2cn(CCOCCOCCOCCOCCOCCOCCOCCOCCOCCOCCOCCNC(=O)CC[C@H](NC(=O)CCCCCCCCCCCCCCCCC(=O)OCc3oc(=O)oc3C)C(=O)O)nn2)C(=O)O)CSCC(=O)N[C@@H](Cc2ccc(O)cc2)C(=O)N(C)[C@@H](C)C(=O)N[C@@H](CC(N)=O)C(=O)N2CCC[C@H]2C(=O)N[C@@H](CNC(=O)OCC)C(=O)N[C@@H](CC(C)C)C(=O)N2C[C@H](O)C[C@H]2C(=O)N[C@@H](Cc2c[nH]c3ccccc23)C(=O)N[C@@H](CCN)C(=O)N[C@@H](Cc2cn(CC(=O)O)c3ccccc23)C(=O)N1C [Example 7016],7.47
10,CCCC[C@H]1C(=O)N(C)[C@@H](CCCC)C(=O)N[C@@H](CC(C)C)C(=O)N[C@H](C(=O)NCC(=O)N[C@@H](Cc2cn(CCOCCOCCOCCOCCOCCOCCOCCOCCOCCOCCOCCNC(=O)CC[C@H](NC(=O)CCCCCCCCCCCCCCCCC(=O)O)C(=O)O)nn2)C(=O)O)CSCC(=O)N[C@@H](Cc2ccc(O)cc2)C(=O)N(C)[C@@H](C)C(=O)N[C@@H](CC(N)=O)C(=O)N2CCC[C@H]2C(=O)N[C@@H](CN)C(=O)N[C@@H](CC(C)C)C(=O)N2C[C@H](O)C[C@H]2C(=O)N[C@@H](Cc2c[nH]c3ccccc23)C(=O)N[C@@H](CCNC(=O)OC)C(=O)N[C@@H](Cc2cn(CC(=O)O)c3ccccc23)C(=O)N1C [Example 5001],9.24
11,CCCC[C@H]1C(=O)N(C)[C@@H](CCCC)C(=O)N[C@@H](CC(C)C)C(=O)N[C@H](C(=O)NCC(=O)N[C@@H](Cc2cn(CCOCCOCCOCCOCCOCCOCCOCCOCCOCCOCCOCCNC(=O)CC[C@H](NC(=O)CCCCCCCCCCCCCCCCC(=O)O)C(=O)OC)nn2)C(=O)O)CSCC(=O)N[C@@H](Cc2ccc(O)cc2)C(=O)N(C)[C@@H](C)C(=O)N[C@@H](CC(N)=O)C(=O)N2CCC[C@H]2C(=O)N[C@@H](CN)C(=O)N[C@@H](CC(C)C)C(=O)N2C[C@H](O)C[C@H]2C(=O)N[C@@H](Cc2c[nH]c3ccccc23)C(=O)N[C@@H](CCN)C(=O)N[C@@H](CC2=CC(CC(=O)O)c3ccccc32)C(=O)N1C (some centres unmarked) [Example 1026],8.54
12,CCCC[C@H]1C(=O)N(C)[C@@H](CCCC)C(=O)N[C@@H](CC(C)C)C(=O)N[C@H](C(=O)NCC(=N)N[C@@H](Cc2cn(CCOCCOCCOCCOCCOCCOCCOCCOCCOCCOCCOCCNC(=O)CC[C@H](NC(=O)CCCCCCCCCCCCCCCCC(=O)OC)C(=O)O)nn2)C(=O)O)CSCC(=O)N[C@@H](Cc2ccc(O)cc2)C(=O)N(C)[C@@H](C)C(=O)N[C@@H](CC(N)=O)C(=O)N2CCC[C@H]2C(=O)N[C@@H](CN)C(=O)N[C@@H](CC(C)C)C(=O)N2C[C@H](O)C[C@H]2C(=O)N[C@@H](Cc2c[nH]c3ccccc23)C(=O)N[C@@H](CCN)C(=O)N[C@@H](Cc2cn(CC(=O)O)c3ccccc23)C(=O)N1C [Example 1007] ({CH2CO}-Y[NMeA]NP[Dap]L[Hyp]W[Dab][Trp(1-CH2COOH)][NMeNle][NMeNle]LC-X1; thioether N-14),7.68
13,CCCC[C@H]1C(=O)N(C)[C@@H](CCCC)C(=O)N[C@@H](CC(C)C)C(=O)N[C@H](C(=O)NCC(=O)N[C@@H](Cc2cn(CCOCCOCCOCCOCCOCCOCCOCCOCCOCCOCCOCCNC(=O)CC[C@H](NC(=O)CCCCCCCCCCCCCCCCC(=O)O)C(=O)O)nn2)C(=O)O)CSCC(=O)N[C@@H](Cc2ccc(O)cc2)C(=O)N(C)[C@@H](C)C(=O)N[C@@H](CC(N)=O)C(=O)N2CCC[C@H]2C(=O)N[C@@H](CNC(=O)OC)C(=O)N[C@@H](CC(C)C)C(=O)N2C[C@H](O)C[C@H]2C(=O)N[C@@H](Cc2c[nH]c3ccccc23)C(=O)N[C@@H](CCNC(=O)OCc2oc(=O)oc2C)C(=O)N[C@@H](Cc2cn(CC(=O)O)c3ccccc23)C(=O)N1C [Example 7005],7.92
14,CCCC[C@H]1C(=O)N(C)[C@@H](CCCC)C(=O)N[C@@H](CC(C)C)C(=O)N[C@H](C(=O)NCC(=O)N[C@@H](Cc2cn(CCOCCOCCOCCOCCOCCOCCOCCOCCOCCOCCOCCNC(=O)CC[C@H](NC(=O)CCCCCCCCCCCCCCCCC(=O)O)C(=O)O)nn2)C(=O)O)CSCC(=O)N[C@@H](Cc2ccc(O)cc2)C(=O)N(C)[C@@H](C)C(=O)N[C@@H](CC(N)=O)C(=O)N2CCC[C@H]2C(=O)N[C@@H](CNC(=O)OCCC)C(=O)N[C@@H](CC(C)C)C(=O)N2C[C@H](O)C[C@H]2C(=O)N[C@@H](Cc2c[nH]c3ccccc23)C(=O)N[C@@H](CCN)C(=O)N[C@@H](CC2=CC(CC(=O)O)c3ccccc32)C(=O)N1C (some centres unmarked) [Example 1013],8.03
